The record followed here is US11447445B2, “Diabetes and metabolic syndrome treatment with a novel dual modulator of soluble epoxide hydrolase and peroxisome proliferator-activated receptors” (priority 2015, dated 2022).

The target in one data set is T1, recombinant human sEH (Homo sapiens, UniProt P34913).
T1 sequence (P34913 1-555): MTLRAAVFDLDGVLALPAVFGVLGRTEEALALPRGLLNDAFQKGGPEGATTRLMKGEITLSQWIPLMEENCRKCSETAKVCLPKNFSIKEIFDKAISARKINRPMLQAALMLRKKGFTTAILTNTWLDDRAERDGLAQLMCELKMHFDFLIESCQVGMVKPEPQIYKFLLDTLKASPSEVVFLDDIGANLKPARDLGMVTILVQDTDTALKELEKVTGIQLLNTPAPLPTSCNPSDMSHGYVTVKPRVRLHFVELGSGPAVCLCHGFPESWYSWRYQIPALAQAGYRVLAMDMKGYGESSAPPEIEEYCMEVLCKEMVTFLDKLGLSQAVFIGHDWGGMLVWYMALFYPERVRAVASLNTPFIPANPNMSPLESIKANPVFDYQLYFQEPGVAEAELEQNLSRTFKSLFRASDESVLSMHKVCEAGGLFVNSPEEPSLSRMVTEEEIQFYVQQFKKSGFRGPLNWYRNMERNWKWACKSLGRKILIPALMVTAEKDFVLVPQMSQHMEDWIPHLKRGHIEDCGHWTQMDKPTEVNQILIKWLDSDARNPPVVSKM
The data set can be described thus: biochemical. Particulars: read-out: IC50 sEH (converted).

Another data set deals with T2, PPARα (Homo sapiens, UniProt Q07869).
T2 construct: expressed in transfected cells; host or cells: COS-7
T2 sequence (Q07869 239-466): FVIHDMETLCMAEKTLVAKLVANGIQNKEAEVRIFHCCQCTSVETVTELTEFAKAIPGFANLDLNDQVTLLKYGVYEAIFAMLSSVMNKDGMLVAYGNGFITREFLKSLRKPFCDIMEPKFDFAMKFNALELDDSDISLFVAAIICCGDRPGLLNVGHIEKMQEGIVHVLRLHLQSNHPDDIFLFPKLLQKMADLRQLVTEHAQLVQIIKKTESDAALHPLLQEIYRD
The format is cell-based.

Another data set concerns the target T3, PPARδ (Homo sapiens, UniProt Q03181).
T3 construct: expressed in transfected cells; host or cells: COS-7
As to the kind of experiment: PPAR transactivation assay in COS-7 cells (Gal4-hPPAR-LBD, luciferase). In kind it is cell-based. Particulars: i.a. = inactive.

Data set [1] is described as follows: Water solubility approximation. The format is physicochemical. Particulars: aqueous with cosolvent or surfactant or cyclodextrin, kinetic from dmso stock; PBS pH 7.4, 0.01% Polysorbate 20, 1% DMSO; precipitation at 650 nm; read-out: w.s. (water solubility). As for the experimental part:
PBS at pH 7.4 with 0.01% Polysorbate 20 (Tween) was combined with 1% of a DMSO solution of the inquired compound in a 96-well transparent flat bottom microtiter plate. Precipitation of the compound was measured at 650 nm with a Tecan Infinite 200 (Tecan Group Ltd, Mannedorf, Switzerland).

The subject of another data set is HepG2 cells. As to the kind of experiment: WST-1 cytotoxicity assay. In kind it is cell-based. The settings on record: up to a concentration of 30 μM; 48 hours. For orientation: Formazan colour is commonly taken as a measure of viable cells.
Data set [2] can be described thus: In vitro drug metabolism in rat liver microsomes. In kind it is in vitro ADME. The settings on record: 10 μM, 1 h incubation. (In general: Liver microsomes are a subcellular fraction often used to study metabolism.)
Experimental: The incubation was performed in a shaking water bath at 37° C. The reaction was stopped by the addition of 500 μl ice-cold methanol at 0, 15, 30 and 60 min. The samples were centrifuged at 10 000 g for 5 min at 4° C. The supernatants were analysed and quantified by HPLC. Control samples were always performed to check the stability of the compounds in the reaction mixture. First control was without NADPH, which is needed for the enzymatic activity of the microsomes. Second control was with inactivated microsomes (microsomes that were incubated for 20 min at 90° C.). Third control was without test compounds (to determine the baseline). As positive control, a solution of 7-ethoxycoumarin (1 mM) was used. The final concentration of the control compound, under assay conditions, was again 10 μM. The amounts of the test compounds were quantified by an external calibration curve.
In another data set the test system is 3T3-L1 fibroblasts. As to the kind of experiment: Adipocyte differentiation of murine 3T3-L1 cells (Oil Red O staining). The format is cell-based. Particulars: 1c 1-10 μM; CIU 10 μM.
In data set [3] the test system is human primary preadipocytes. The data set can be described thus: Adipocyte differentiation of human primary preadipocytes (Oil Red O staining). The format is cell-based. Particulars: 1c 1-10 μM; CIU 10 μM. As for the experimental part: (§1) Human primary preadipocytes were obtained from stromal vascular fraction of subcutaneous fat from anonymous donors undergoing elective cosmetic surgery. Adipose tissue was digested by collagenase solution (0.3 U/ml in 1% BSA/PBS) for 45 min at 37° C. with constant shaking. Floating mature adipocytes were removed and the pellet containing the stromal vascular fraction was resuspended in erythrocyte lysis buffer. […] After 4 days the medium was changed to 3FC medium (QuickDiff medium without dexamethasone, IBMX and rosiglitazone). Adipocytes were cultured for additional 14 days before medium was changed to basal medium consisting of DMEM/Ham's F12 with biotin and panthotenate. This investigation conforms to the ethical principles outlined in the Declaration of Helsinki and was approved by the university ethics committee (Ethik-Kommission des Fachbereichs Medizin der Goethe-Universitat Frankfurt am Main). Total RNA was isolated using PeqGold RNAPure (Peqlab) according to manufacturer's instructions and was transcribed to cDNA using Maxima First Strand cDNA synthesis kit (Thermo Scientific), following manufacturer's instructions. Quantitative PCR was performed with iQ SYBR green Supermix (Bio-Rad) using a CFX96 (Bio-Rad) system. Expression was normalized to actin RNA.

Data set [4] concerns PPARγ target genes (GLUT4, Adiponectin, FABP4, LPL). As to the kind of experiment: qPCR of PPARγ target genes in differentiated 3T3-L1 cells. In kind it is cell-based, murine. The settings on record: 1-10 μM; compared to rosiglitazone 2 μM. (In general: Real-time PCR tracks product formation cycle by cycle.)
Data set [5] has the same test system. The data set can be described thus: qPCR of PPARγ target genes in human primary adipocytes. The format is cell-based. As for the experimental part: as §1
A further data set concerns PPARγ target gene CD36. As to the kind of experiment: CD36 expression in mouse liver (qPCR). In kind it is in vivo. Particulars: single p.o. 30 mg/kg bw, 8 h; compared to non-treated mice.
In the next data set the target is T4, hFFA1 (Homo sapiens, UniProt O14842).
T4 construct: expressed in transfected cells; host or cells: Flp-In T-REx 293 (HEK293), doxycycline-induced
T4 sequence (O14842 whole entry): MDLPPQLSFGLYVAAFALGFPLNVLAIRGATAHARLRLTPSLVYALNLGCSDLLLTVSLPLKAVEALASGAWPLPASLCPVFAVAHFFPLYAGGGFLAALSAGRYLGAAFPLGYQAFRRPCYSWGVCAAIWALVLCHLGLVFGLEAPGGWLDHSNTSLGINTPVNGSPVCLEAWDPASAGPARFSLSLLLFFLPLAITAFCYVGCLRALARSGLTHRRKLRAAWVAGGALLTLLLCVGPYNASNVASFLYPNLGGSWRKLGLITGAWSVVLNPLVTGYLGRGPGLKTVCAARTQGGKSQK
As to the kind of experiment: IP1 accumulation in HEK293 cells stably expressing hFFA1. In kind it is cell-based. The settings on record: read-out: pEC50 (IP1 accumulation) (converted). As for the experimental part:
(§2) Stably transfected Flp-In™ T-REx™ 293 cells (Invitrogen) were cultured in Dulbecco's modified Eagles's medium (DMEM) containing 10% (v/v) fetal bovine serum (FBS), penicillin (100 U/mL), streptomycin ([…]), Hygromycin B (100 μg/mL) and Blasticidin (15 μg/mL) at 37° C. and 5% CO2. All experiments were carried out after inducing receptor expression with 1 μg/mL doxycycline for approximately 18 hours, according to manufacturer's instructions (Invitrogen).
(§3) Compound activity on the Gq coupled FFA1 receptor constructs was assessed by measuring intracellular level of inositolmonophosphate (IPI) using the HTRF®-IP-One kit (Cisbio International) according to manufacturer's instructions. Briefly, 10,000 receptor expressing cells were seeded into a 384 well microplate and incubated 20 minutes at 37° C. […] Data analysis and nonlinear regression curve fitting were carried out using the GraphPad Prism® software v5.04 (Graphpad Software).

A further data set has as its target T5, mFFA1 (Mus musculus, UniProt Q76JU9).
T5 construct: expressed in transfected cells; host or cells: Flp-In T-REx 293 (HEK293), doxycycline-induced
The data set can be described thus: IP1 accumulation in HEK293 cells stably expressing mFFA1. The format is cell-based. Particulars: read-out: pEC50 (IP1 accumulation) (converted). As for the experimental part: as §2, §3

The conditions of data set [6]: after p.o. 30 mg/kg bw of 1c.
Experimental: Blood was sampled 15 min, 30 min, 1 h, 2 h, 4 h and 8 h after test item application and only 8 h after vehicle application. Each drug treated mouse was sampled twice (0.25 and 0.5 h, 1 and 2 h, 4 and 8 h) via retro orbital puncture. Blood was collected in tubes containing lithium-heparin, stored on ice and subsequently centrifuged at 6000 rpm for 10 minutes at 4° C. (Heraeus biofuge fresco). The plasma was prepared within 45 min after sampling and kept at −20° C. until being assayed. For further kinetic and dynamic analysis the tissues (brain, liver, abdominal fat) were collected 30 min, 2h and 8 h post dose, after the second plasma sampling of each drug treated mouse. Tissue of the vehicle group was sampled only once, 8 h post dose. A volume of 40 μl acetonitrile containing the internal standard (300 ng/ml Diazepam) was added to 20 μl of mouse plasma sample, plasma calibration standard and plasma QC samples. Samples were vigorously shaken and centrifuged for 10 minutes at 6000 g and 20° C. The particle free supernatant was diluted 1:1 with water. An aliquot was transferred to 200 μl sampler vials and subsequently subjected to LC MS with an injection volume of 20 pl. The brain samples were homogenized in PBS (1+1, w/v) using the Precellys 24/Dual homogenizer. A volume of 20 μl of the brain homogenate was mixed (1+1 v/v/) with 20 μl mouse blank plasma. Then 80 μl acetonitrile containing the internal standard (300 ng/ml Diazepam) were added. Samples were vigorously shaken and centrifuged for 10 minutes at 6000 g and 20° C. The particle free supernatant was diluted 1:1 with water. An aliquot was transferred to 200 μl sampler vials and subsequently subjected to LC MS with an injection volume of 20 μl. Mass spectrometry was performed on a TSQ Quantum Discovery Max triple quadrupole mass spectrometer equipped with an electrospray (ESI) interface (Thermo Fisher Scientific, USA) connected to a PC running the standard software Xcalibur 2.0.7. […]
The test system of a further data set is SHROB rats. As for the experimental part:
SHROB were treated with RB394 (10 mg/kg/d, p.o.; […]) for 8-weeks.
Metabolic syndrome (MetS) is a cluster of symptoms including hypertension, hyperglycemia, hypertriglyceridemia and obesity. […] The inventors hypothesized that the development of a dual modulator (a drug that combines two pharmacophores) could treat more than one symptom of MetS and prevent renal injury. […] The inventors synthesized a novel dual sEH inhibitor-PPAR-γ agonist (sEHi/PPAR-γ), RB394 and investigated its efficacy in a rat model of MetS (see FIG. 21). Three groups of rats were utilized; Group 1: Wister Kyoto (WKY)+Vehicle (n=6); Group 2: Spontaneously Hypertensive Obese (SHROB)+Vehicle (n=5); Group 3: SHROB+RB394 (10 mg/kg/d p.o.; n=5). RB394 or vehicle treatments were administered for 56 days, blood pressure measured, and urine and kidney tissues collected at the end of treatment period. […] Kidney injury was assessed from albuminuria, and also from histopathological analysis of renal tubular cast formation, collagen formation and glomerular injury using Periodic Acid Schiff and Picro Sirius Red staining.
The Medical College of Wisconsin Institutional Animal Care and Use Committee according to the National Institutes of Health Guidelines for Care and Use of Laboratory Animals approved all animal studies. Eight to nine-week-old male Wistar-Kyoto (WKY), and SHROB were purchased from Charles River Laboratories (Wilmington, Mass., USA). Animals were housed in the Biomedical Resource Center at Medical College of Wisconsin with a 12 hour light-dark cycle and free access to tap water along with rat chow. WKY rats (n=6) were used as a control group as a comparison for disease progression. SHROB rats were divided into 2 groups. Group 1 received vehicle (n=5) and Group 2 received RB394 (10 mg/kg/d p.o.; n=5) for 8 weeks. Rats were weighed and systolic blood pressure was measured by tail-cuff plethysmography.
Intra-peritoneal glucose tolerance test was carried out during the 8-week treatment protocol in rats that were fasted overnight and injected with glucose (2 g/kg i.p.). Blood samples were collected from the tail vein before and at different time points after glucose injection. The tail vein blood glucose levels were measured using a glucometer LifeScan (Miltipas, Calif., USA).
Urinary biochemical analysis was done using commercially available ELISA kits; albumin and from Exocell (Philadelphia, Pa.). Rats were anesthetized using isoflorane and plasma collected from the artery. Triglyceride, cholesterol, protein and creatinine assay kits were from Cayman (Ann Arbor, Mich., USA), and free fatty acids from Zen-Bio Inc. (Research Triangle Park, N.C.). Blood glucose levels from the tail vein were measured using a glucometer.
The kidney was excised and immersion-fixed in 10% neutral buffered formalin and paraffin embedded. The embedded kidney and pancreas sections were cut into 4 μm slices for use in histology. Formalin-fixed paraffin-embedded tissue slices were deparaffinized, re-hydrated, and kidney tissue slices were stained with Periodic Acid-Schiff (PAS) and Masson's Trichorme. Glomerulosclerosis and mesangial matrix expansion were blindly scored from kidney sections stained with PAS staining using the following numeric scale: 0=no damage; +1=very mild; +2=mild; +3=moderate and +4=severe. Two observers in a blinded fashion conducted histological analysis at a magnification of ×200 using Nikon NIS Elements Software (Nikon Instruments Inc., Melville, N.Y., USA). Proteinaceous cast in the kidney was also determined in PAS stained kidney sections at magnification of ×200 using Nikon NIS Elements Software. The percentage area positive for proteinaceous cast was calculated from the mean of eight cortical and five medullary fields for each animal. Fibrosis in the kidney was determined in kidney sections stained with Masson's Trichorme at a magnification of ×200.

[7] abbreviates: SHROB + RB394 10 mg/kg/d p.o., 8 weeks.
The mark [8] stands for this setting: SHROB + RB394 10 mg/kg/d p.o., 56 days.

In brackets after ≈: the same amount, converted by molar mass.

T3 sequence (Q03181 211-439): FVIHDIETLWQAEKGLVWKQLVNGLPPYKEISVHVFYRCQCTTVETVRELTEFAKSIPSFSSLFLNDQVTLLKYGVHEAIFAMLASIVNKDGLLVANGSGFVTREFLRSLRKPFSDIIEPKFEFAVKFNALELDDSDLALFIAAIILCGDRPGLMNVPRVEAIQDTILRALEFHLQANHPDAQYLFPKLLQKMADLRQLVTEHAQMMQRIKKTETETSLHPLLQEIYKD
T5 sequence (Q76JU9 whole entry): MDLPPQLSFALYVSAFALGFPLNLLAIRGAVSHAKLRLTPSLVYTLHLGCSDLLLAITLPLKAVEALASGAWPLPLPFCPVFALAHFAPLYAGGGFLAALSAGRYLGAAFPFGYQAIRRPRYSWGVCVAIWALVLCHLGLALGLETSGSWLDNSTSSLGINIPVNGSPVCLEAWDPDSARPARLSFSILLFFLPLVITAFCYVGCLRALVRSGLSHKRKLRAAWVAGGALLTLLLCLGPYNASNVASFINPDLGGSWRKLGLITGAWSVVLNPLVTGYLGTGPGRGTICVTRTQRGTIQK
Experimental for 3T3-L1 fibroblasts: 3T3-L1 cells were subcultured in DMEM containing 10% newborn calf serum in a humidified atmosphere at 37° C., 5% CO2. […] Briefly, cells were seeded in 6-well plates (2.5×10^6/well). Differentiation was started at day 3 by addition of 1 μg/ml insulin, 0.25 dexamethasone and 0.5 mM isobutylmethylxanthine in DMEM supplemented with 10% fetal calf serum. At day 5 medium was replaced by medium containing only insulin for 2 more days. After this, cells were kept for lipid droplet accumulation in basal medium without additions until day 15.
Experimental for HepG2 cells: The WST-1 assay (Roche Diagnostic GmbH, Mannheim, Germany) was used to determine the cell viability after treatment with the compounds. For this purpose, Hela and HepG2 cells were seeded each in 96-well plates at a density of 1×10^4 per well in DMEM with Phenolred and in presence of 10% FCS. After 24 hours the medium was changed. Fresh DMEM with 10% FCS was added and the cells were treated with the compounds for 48 hours. Cell viability was assessed according to the manufacturer's protocol using a microplate reader (infinity M200, Tecan Group Ltd., Crailsheim, Germany). All experiments were performed at least in triplicate.
Experimental for PPARγ target gene CD36: 3T3-L1 cells or homogenized mouse tissues were lysed using TRIzol® reagent (Ambion, life technologies, Carlsbad, USA) and mRNA was isolated following the manufacturers protocol. DNA contaminations were digested using DNAse (DNase I, RNase-free Kit; Thermo Scientific, Waltham, USA) and mRNA concentrations were measured with a NANODROP2000 spectrophotometer (Thermo Scientific, Waltham, USA). Subsequently, reverse transcription was performed using the High Capacity RNA-to-cDNA Kit (Applied Biosystems, Foster City, USA). PCR was performed using specific primers for GLUT-4, FABP-4, LPL, adiponectin and CD36 (shown under supporting informations) with a StepOnePlus Real-Time PCR System (Applied Biosystems, Foster City, USA). NoNo (3T3-L1) and β-Actin (mouse tissue) were used as reference genes. All samples were measured in triplicates and were analyzed using the ΔΔCT method.

In general, IC50 refers to the concentration that gives 50% inhibition. As usually defined, the solubility is the concentration that dissolves in the medium under given conditions. Turning to `CCC(Cc1ccc(C(=O)NCc2ccccc2C(F)(F)F)cc1)C(=O)O` (stereo not shown) [Compound 1c, 2-Ethyl 3-[4-(N-((2-trifluoromethyl)benzyl)benzamide)]propionic acid], the IC50 on recombinant human sEH was 1.6 ± 0.2 µM. Further, the “EC50 PPARα” value on PPARα (i.a. = inactive) was “i.a”. Further, the “EC50 PPARδ” value at PPARδ was “i.a”. Also, the solubility in data set [1] came to 100 µM (≈ 37.9 µg/mL). The “cell viability of HepG2 cells (WST-1)” value in the data set with HepG2 cells is on record as “did not impair cell viability”. Also, the “compound remaining intact after 1 h” value in [2] was found to be 92%. The “adipocyte differentiation (Oil-Red O)” value in the data set with 3T3-L1 fibroblasts is listed as “dose-dependent effect”; in [3], “dose dependent (1-10 μM) effect”. For the same molecule, the “expression of PPARγ target genes (GLUT4, Adiponectin, FABP4, LPL)” value in data set [4] is recorded as “dose-dependently activated expression of all target genes analysed”. In addition, the “upregulation of GLUT4 expression” value in data set [5] (1c 10 μM) was “comparable to the rosiglitazone (2 μM) control”. Further, in data set [5] (1c stimulation), the “upregulation of Adiponectin, FABP4 and LPL” value is “only minor effects”. In the data set on PPARγ target gene CD36, the “increase of CD36 expression in liver” value was “at least 2 fold”. For the same molecule, the EC50 at hFFA1 is 8.32 µM; on mFFA1, 4.9 µM. Also, the “AUC0→∞” value in data set [6] worked out at 15847 ng·h/mL. Moreover, the tmax in data set [6] worked out at 30 min.
`CCC(Cc1ccc(C(=O)NCc2ccc(OC)cc2C(F)(F)F)cc1)C(=O)O` (stereo not shown) [Compound 14c, 2-Ethyl 3-14-(N-(4-methoxy(2-trifluoromethyl)benzyl)benzamide)1 propionic acid]: the “PPARα activation @10 μM” value on PPARα (at 10 μM, compared to GW7647 1 μM) came to 29%. Also, the “EC50 PPARδ” value on PPARδ is on record as “n.t. i.a. i.a. n.t”. Also, in [1], the solubility is 500 µM (≈ 205 µg/mL). Also, the “cell viability of HepG2 cells (WST-1)” value in the data set on HepG2 cells was “did not impair cell viability”. For the same molecule, the “compound remaining intact after 1 h” value in data set [2] is 96%. Further, at hFFA1, the EC50 was 14.1 µM. At mFFA1, the EC50 is 23.4 µM. In addition, in the data set on SHROB rats (8 weeks), the “body weight gained more than vehicle treated SHROB” value was “approximately 40 g” and the “systolic blood pressure lower than vehicle treated SHROB” value is recorded as “approximately 44 mmHg”. In addition, in the data set with SHROB rats (setting [7]), the “Body Weight” value is 600 ± 8 g, the “Fasting Blood Glucose” value came out at 83 ± 7 mg/dL, the “Free fatty Acid” value is “^#322 ± 24 μM” and the “Serum Cholesterol” value is given as “#4.0 ± 0.7 mM”. Moreover, the Triglyceride result in the data set on SHROB rats (setting [7]) is recorded as “^#133 ± 18 mg/DL”. Moreover, in the data set with SHROB rats (setting [8]), the albuminuria was determined as 59 ± 11 mg/day; the “reduction of glomerular injury” value was 45%; the “reduction of renal cast and collagen formation” value is listed as 40-50%; the “reduction of renal inflammation (infiltrating immune cells in the kidney)” value was determined as 20%.
